These results are taken from patent US6756354B2, “Therapeutic compositions containing oligo (ethylene glycol)-terminated 1,2-dithiolanes and their conjugates” (priority 2001, dated 2004).

Where a name gives a salt, the structure may show the parent alone.

For series [1] the following is noted: mouse.
The conditions of series [2]: oral; presystemic glucuronide conjugation; cited from earlier work.

With “OEG-terminated 1,2-dithiolane-conjugated insulin: insulin conjugated at lysine-29 of the beta-chain with NHS-ester of carboxyl-OEG-terminated thioctamide (x is 8)”, in series [1] (in vivo, po), the “oral bioavailability (concluded from glucose reduction)” value is “orally bioavailable”. Further, the serum glucose result in series [1] (oral gavage, 10 mg/mL solution, 10 mL/kg dose) was “reduction”.
On to `O=C(c1ccc(OCCN2CCCCC2)cc1)c1c(-c2ccc(O)cc2)sc2cc(O)ccc12` [Raloxifene, [6-hydroxy-2-(4-hydroixyphenyl)benzo[b]thien-3-yl]-4-[2-(1-piperidinyl)ethoxy]phenyl]methanone hydrochloride], for which the absolute bioavailability result in series [2] is listed as “about 2%”.
